The values below come from PMC4437027, “New ambuic acid derivatives from the solid culture of Pestalotiopsis neglecta and their nitric oxide inhibitory activity” (Scientific Reports, 2015).

Each structure is given as a SMILES string. Read-outs that look alike come from different tables or passages of the source. Some results are limits rather than exact numbers.

Assay [1] deals with NO production in LPS-induced macrophages (RAW 264.7). As to the kind of experiment: Inhibition of NO production in LPS-induced macrophages (RAW 264.7), nitrite accumulation. The assay is classed as cell-based. Particulars: Mus musculus. The source says: Mouse monocyte-macrophages RAW 264.7 (ATCC TIB-71) were purchased from the Chinese Academy of Science. RPMI 1640 medium, penicillin, streptomycin, and fetal bovine serum were purchased from Invitrogen (NewYork, USA). Lipopolysaccharide (LPS), DMSO, 3-(4,5-dimethylthiazol-2-yl)-2,5-diphenyl-2H-tetrazolium bromide (MTT), and hydrocortisone were obtained from Sigma Chemical Co. (Saint Louis, MO, U.S.A). RAW 264.7 cells were kept in RPMI 1640 medium supplemented with penicillin (100 U/mL), streptomycin (100 μg/mL), and 10% heat-inactivated fetal bovine serum at 37°C in a humidified incubator with 5% CO2 and 95% air. RAW 264.7 cells were passaged by trypsinization until they attained confluence and were used for assays during the exponential growth phase.
Compounds 1, 4–8 were dissolved in DMSO and were further diluted with the culture medium to give a final DMSO concentration of 0.2% in the assay. This concentration of DMSO had no significant effect on the growth of the cell line tested. The procedure of NO inhibition assay was conducted as previously reported. The level of NO was assessed by measuring the accumulation of nitrite (NO2^−) using the same method as previously reported. Cytotoxicity was measured using the 3-(4,5-dimethylthiazol-2-yl)-2.5-diphenyltetrazolium bromide (MTT) assay method. The inhibition rate was calculated based on the following equation (1).

Another assay concerns Fusarium solani. Also noted: method as in PMID 11261579. Particulars: cited from earlier work.
A further assay concerns Fusarium cubense. More on the design: method as in PMID 11261579. Particulars: cited from earlier work.
Another assay deals with Helminthosporium sativum. Also noted: method as in PMID 11261579. Particulars: cited from earlier work.
The subject of the next assay is Diplodia natelensis. Also noted: method as in PMID 11261579. Particulars: cited from earlier work.
Another assay has as its system Cephalosporium gramineum. More on the design: method as in PMID 11261579. To be noted: cited from earlier work.
The test system of another assay is Pythium ultimum. More on the design: method as in PMID 11261579. Particulars: cited from earlier work.
The next assay deals with Staphyococcus aureus. More on the design: method as in PMID 19117486. Particulars: Gram-positive bacterium Staphyococcus aureus; cited from earlier work.
Assay [2] concerns biosynthesis of cyclic peptide quormones in Enterococcus faecalis. Particulars: Gram-positive bacteria Enterococcus faecalis; cited from earlier work.
Where [3] appears, read: RAW264.7, LPS-induced RAW 264.7 macrophages, read-out: NO inhibitory activity (IC50).

The IC50 is the midpoint of a concentration-inhibition curve. On to `CC(=CCC12OC1C(O)C(CO)=C(C=CCCCC(C)O)C2=O)C(=O)O` (stereo not drawn) [Compound 1], for which the IC50 in assay [1] (setting [3]) is more than 100 µM.

`CCCCC/C=C/C1=C(COC(C)=O)[C@@H](O)[C@H]2O[C@@]2(C/C=C(\C)C(=O)O)[C@H]1O` [Compound 4]: in assay [1] (setting [3]), the IC50 is 88.7 ± 6.74 µM.

Turning to `CCCCC/C=C/C1=C(CO)[C@@H](O)[C@H]2O[C@@]2(C/C=C(\C)C(=O)O)[C@H]1O` [Compound 5], in assay [1] (setting [3]), the IC50 was more than 100 µM.

For `CCCCC/C=C/C1=C(COC(C)=O)[C@@H](O)[C@H]2O[C@@]2(C/C=C(\C)C(=O)O)C1=O` [Compound 6], the half-maximal inhibitory concentration (IC50) in [1] (setting [3]) was determined as 11.2 ± 0.79 µM.

For `CCCCC/C=C/C1=C(CO)[C@H](O)[C@H]2O[C@@]2(C/C=C(\C)C(=O)O)C1=O` [Compound 7, Ambuic acid], the IC50 in assay [1] (setting [3]) was 20.8 ± 1.41 µM. Besides, the Antifungal effect result in the assay with Fusarium solani, in the assay with Fusarium cubense, in the assay on Helminthosporium sativum, in the assay on Diplodia natelensis, with Cephalosporium gramineum and with Pythium ultimum was “moderate antifungal effects” each time. The Antimicrobial effect entry with Staphyococcus aureus is recorded as “antimicrobial”. The “Inhibition of biosynthesis of cyclic peptide quormones” value in assay [2] is “inhibits the biosynthesis of cyclic peptide quormones”.

For `CCCCC/C=C/C1=C(CO)C(=O)C[C@](O)(C/C=C(\C)C(=O)O)[C@H]1O` [Compound 8], in assay [1] (setting [3]), the IC50 is more than 100 µM.

As to `C[C@]12CCC(=O)C=C1CC[C@@H]1[C@@H]2[C@@H](O)C[C@@]2(C)[C@H]1CC[C@]2(O)C(=O)CO` [Hydrocortisone, hydrocortisone, reference compound], the IC50 in assay [1] (RAW264.7, read-out: NO inhibitory activity (IC50)) stood at 53.7 ± 3.86 µM.
